Measured values from patent US11613531B2, “Inhibitors of RHO associated coiled-coil containing protein kinase” (Kadmon Corporation, LLC, priority 2017, dated 2023).

These molecules were tested against Recombinant ROCK2 (amino acids 1-552) (Homo sapiens (Human), UniProt O75116) (assay: Z′-Lyte kinase assay, ROCK2). Details: 3 μM compound; read-out: ROCK2 % inh. @ [conc].
Type: biochemical
Method in brief: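 IC50s derive from nonlinear curve fits over a 9-point, 2-fold dilution series, with single-point inhibition at 1 μM expressed relative to DMSO. Activity of truncated human ROCK1 (residues 1-535) and ROCK2 (residues 1-552) measured with the Z′-Lyte kinase format.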

Chain of Recombinant ROCK2 (amino acids 1-552) (O75116 1-552): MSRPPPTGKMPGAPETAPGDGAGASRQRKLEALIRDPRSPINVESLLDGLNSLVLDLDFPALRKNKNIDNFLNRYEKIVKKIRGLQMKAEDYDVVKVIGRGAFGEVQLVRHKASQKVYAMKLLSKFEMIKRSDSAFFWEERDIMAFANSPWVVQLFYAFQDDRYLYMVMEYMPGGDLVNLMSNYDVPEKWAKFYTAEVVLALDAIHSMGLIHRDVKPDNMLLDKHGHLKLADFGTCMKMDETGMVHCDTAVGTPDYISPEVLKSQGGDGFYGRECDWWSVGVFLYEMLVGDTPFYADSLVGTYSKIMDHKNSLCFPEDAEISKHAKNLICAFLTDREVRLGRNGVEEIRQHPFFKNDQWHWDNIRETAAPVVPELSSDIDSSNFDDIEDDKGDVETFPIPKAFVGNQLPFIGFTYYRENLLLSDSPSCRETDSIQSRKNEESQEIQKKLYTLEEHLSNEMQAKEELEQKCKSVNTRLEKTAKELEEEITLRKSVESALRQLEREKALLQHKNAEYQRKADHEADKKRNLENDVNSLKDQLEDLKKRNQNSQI

Compound	inhibition at 3 µM
c1cc(Nc2ccc3[nH]ncc3c2)nc(N2CCC3(CCNCC3)C2)n1 [Example 202, N-(2-(2,8-diazaspiro[4.5]decan-2-yl)pyrimidin-4-yl)-1H-indazol-5-amine]	88.3%
CC1CN(c2nccc(Nc3ccc4[nH]ncc4c3)n2)CCCN1 (centres unmarked) [Example 203, N-(2-(3-methyl-1,4-diazepan-1-yl)pyrimidin-4-yl)-1H-indazol-5-amine]	98%
c1cc(Nc2ccc3[nH]ncc3c2)nc(N2CC3CNCC3C2)n1 (centres unmarked) [Example 210, N-(2-(hexahydropyrrolo[3,4-c]pyrrol-2(1H)-yl)pyrimidin-4-yl)-1H-indazol-5-amine]	0%
CC1CN(c2nccc(Nc3ccc4[nH]ncc4c3)n2)CCN1 (centres unmarked) [Example 225, N-(2-(3-methylpiperazin-1-yl)pyrimidin-4-yl)-1H-indazol-5-amine]	98.3%
CC1CNCCN1c1nccc(Nc2ccc3[nH]ncc3c2)n1 (centres unmarked) [Example 232, N-(2-(2-methylpiperazin-1-yl)pyrimidin-4-yl)-1H-indazol-5-amine]	104%
CC1CCN(c2nc(Nc3ccc(-c4ccncc4)cc3)c3ccccc3n2)CCN1 (centres unmarked) [Example 239, 2-(5-methyl-1,4-diazepan-1-yl)-N-(4-(pyridin-4-yl)phenyl)quinazolin-4-amine]	100%

Same assay, conditions: 9 points 2-fold serial dilution

Compound	IC50
CC1CN(c2nccc(Nc3ccc4[nH]ncc4c3)n2)CCCN1 (centres unmarked) [Example 203, N-(2-(3-methyl-1,4-diazepan-1-yl)pyrimidin-4-yl)-1H-indazol-5-amine]	57 nM
CC1CN(c2nccc(Nc3ccc4[nH]ncc4c3)n2)CCN1 (centres unmarked) [Example 225, N-(2-(3-methylpiperazin-1-yl)pyrimidin-4-yl)-1H-indazol-5-amine]	98 nM
CC1CNCCN1c1nccc(Nc2ccc3[nH]ncc3c2)n1 (centres unmarked) [Example 232, N-(2-(2-methylpiperazin-1-yl)pyrimidin-4-yl)-1H-indazol-5-amine]	22 nM
CC1CCN(c2nc(Nc3ccc(-c4ccncc4)cc3)c3ccccc3n2)CCN1 (centres unmarked) [Example 239, 2-(5-methyl-1,4-diazepan-1-yl)-N-(4-(pyridin-4-yl)phenyl)quinazolin-4-amine]	> 1000 nM

These molecules were tested on ppMlc (T18/S19) levels in A7R5 cells (assay: A7R5 in-cell ELISA (pMLC)). Details: Rattus norvegicus, A7R5, A7R5 cells, 10 μM compound; read-out: pMLC % inh A7R5 @ [conc].
Type: cell-based, Rat
Method in brief: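 Cellular IC50 came from a nonlinear regression fit of ppMlc (T18/S19) signal, read by colorimetric in-cell ELISA on fixed cells. Rat A7R5 aortic smooth muscle cells had been exposed for 90 min to compounds in 9-point 2-fold serial dilution, 24 h after seeding.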

Compound	inhibition at 10 µM
c1cc(Nc2ccc3[nH]ncc3c2)nc(N2CCC3(CCNCC3)C2)n1 [Example 202, N-(2-(2,8-diazaspiro[4.5]decan-2-yl)pyrimidin-4-yl)-1H-indazol-5-amine]	13.8%
CC1CN(c2nccc(Nc3ccc4[nH]ncc4c3)n2)CCCN1 (centres unmarked) [Example 203, N-(2-(3-methyl-1,4-diazepan-1-yl)pyrimidin-4-yl)-1H-indazol-5-amine]	63.5%
c1cc(Nc2ccc3[nH]ncc3c2)nc(N2CC3CNCC3C2)n1 (centres unmarked) [Example 210, N-(2-(hexahydropyrrolo[3,4-c]pyrrol-2(1H)-yl)pyrimidin-4-yl)-1H-indazol-5-amine]	73.4%
CC1CN(c2nccc(Nc3ccc4[nH]ncc4c3)n2)CCN1 (centres unmarked) [Example 225, N-(2-(3-methylpiperazin-1-yl)pyrimidin-4-yl)-1H-indazol-5-amine]	78%
CC1CNCCN1c1nccc(Nc2ccc3[nH]ncc3c2)n1 (centres unmarked) [Example 232, N-(2-(2-methylpiperazin-1-yl)pyrimidin-4-yl)-1H-indazol-5-amine]	93%

Same assay, conditions: Rattus norvegicus, A7R5, A7R5 cells, ppMlc (T18/S19)

Compound	IC50
CC1CN(c2nccc(Nc3ccc4[nH]ncc4c3)n2)CCCN1 (centres unmarked) [Example 203, N-(2-(3-methyl-1,4-diazepan-1-yl)pyrimidin-4-yl)-1H-indazol-5-amine]	561 nM
c1cc(Nc2ccc3[nH]ncc3c2)nc(N2CC3CNCC3C2)n1 (centres unmarked) [Example 210, N-(2-(hexahydropyrrolo[3,4-c]pyrrol-2(1H)-yl)pyrimidin-4-yl)-1H-indazol-5-amine]	589 nM
CC1CN(c2nccc(Nc3ccc4[nH]ncc4c3)n2)CCN1 (centres unmarked) [Example 225, N-(2-(3-methylpiperazin-1-yl)pyrimidin-4-yl)-1H-indazol-5-amine]	532 nM
CC1CNCCN1c1nccc(Nc2ccc3[nH]ncc3c2)n1 (centres unmarked) [Example 232, N-(2-(2-methylpiperazin-1-yl)pyrimidin-4-yl)-1H-indazol-5-amine]	129 nM
CC1CCN(c2nc(Nc3ccc(-c4ccncc4)cc3)c3ccccc3n2)CCN1 (centres unmarked) [Example 239, 2-(5-methyl-1,4-diazepan-1-yl)-N-(4-(pyridin-4-yl)phenyl)quinazolin-4-amine]	6350 nM

These molecules were tested against Recombinant ROCK1 (amino acids 1-535) (Homo sapiens (Human), UniProt Q13464) (assay: Z′-Lyte kinase assay, ROCK1). Details: 3 μM compound; read-out: ROCK1 % inh. @ [conc].
Chain of Recombinant ROCK1 (amino acids 1-535) (Q13464 1-535): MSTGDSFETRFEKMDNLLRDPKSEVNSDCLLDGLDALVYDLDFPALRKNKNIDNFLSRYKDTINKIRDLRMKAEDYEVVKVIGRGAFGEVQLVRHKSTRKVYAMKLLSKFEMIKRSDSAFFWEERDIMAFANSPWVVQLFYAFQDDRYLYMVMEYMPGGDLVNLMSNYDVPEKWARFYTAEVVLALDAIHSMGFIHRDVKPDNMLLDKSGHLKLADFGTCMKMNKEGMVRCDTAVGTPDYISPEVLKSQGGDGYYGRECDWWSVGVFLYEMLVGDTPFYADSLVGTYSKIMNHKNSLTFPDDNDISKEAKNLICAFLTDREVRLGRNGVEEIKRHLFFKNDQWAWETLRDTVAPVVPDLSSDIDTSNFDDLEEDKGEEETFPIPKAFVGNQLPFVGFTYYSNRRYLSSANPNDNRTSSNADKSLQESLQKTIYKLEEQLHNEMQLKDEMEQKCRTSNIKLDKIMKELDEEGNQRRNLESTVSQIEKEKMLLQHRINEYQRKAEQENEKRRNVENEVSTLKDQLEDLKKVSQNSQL
Type: biochemical
Experimental: Determination of Compound's ROCK Inhibitory Activity In Vitro (Z'Lyte Assay).
Recombinant ROCK1 (amino acids 1-535) and ROCK2 (amino acids 1-552) proteins were purchased from ThermoFisher Scientific. Compound's activities were measured by Z′-lyte kinase kit (ThermoFisher Scientific) and IC50 was calculated
In vitro activities for the compounds were measured with Z′-lyte kinase kit (ThermoFisher Scientific). The percent inhibition rate was calculated by normalizing the kinase activity value obtained with 1 μM compound treatment against DMSO control value and then applied to the formula, [1-(compound/DMSO)]×100%. IC50s were calculated using the nonlinear regression curve fit function of the GraphPad Prism software with kinase activities data measured with 9 points 2-fold serial dilution of compounds treatment. In cell pMLC IC50s were calculated with data obtained from A7R5 cell experiments. A7R5 cells were treated with 9 points 2-fold serial dilution of compounds and ppMlc (T18/S19) levels were determined to calculate cellular IC50 values of the compounds using the nonlinear regression curve fit function of the GraphPad Prism software. NIH3T3 cells stably expressing ACTA2-promoter-driven-luciferase were applied to measure ROCK compounds functional IC50s in cells. Cells were plated in 96 well plates to confluence and treated with 9 points serial dilution of compounds in combination with TGFβ1 for 24 hr. Luciferase activities were measured and compound's IC50s were calculated using the nonlinear regression curve fit function of the GraphPad Prism software.

Compound	inhibition at 3 µM
c1cc(Nc2ccc3[nH]ncc3c2)nc(N2CCC3(CCNCC3)C2)n1 [Example 202, N-(2-(2,8-diazaspiro[4.5]decan-2-yl)pyrimidin-4-yl)-1H-indazol-5-amine]	88.4%
CC1CN(c2nccc(Nc3ccc4[nH]ncc4c3)n2)CCCN1 (centres unmarked) [Example 203, N-(2-(3-methyl-1,4-diazepan-1-yl)pyrimidin-4-yl)-1H-indazol-5-amine]	89.1%
c1cc(Nc2ccc3[nH]ncc3c2)nc(N2CC3CNCC3C2)n1 (centres unmarked) [Example 210, N-(2-(hexahydropyrrolo[3,4-c]pyrrol-2(1H)-yl)pyrimidin-4-yl)-1H-indazol-5-amine]	41.9%
CC1CN(c2nccc(Nc3ccc4[nH]ncc4c3)n2)CCN1 (centres unmarked) [Example 225, N-(2-(3-methylpiperazin-1-yl)pyrimidin-4-yl)-1H-indazol-5-amine]	80.9%
CC1CNCCN1c1nccc(Nc2ccc3[nH]ncc3c2)n1 (centres unmarked) [Example 232, N-(2-(2-methylpiperazin-1-yl)pyrimidin-4-yl)-1H-indazol-5-amine]	100%
CC1CCN(c2nc(Nc3ccc(-c4ccncc4)cc3)c3ccccc3n2)CCN1 (centres unmarked) [Example 239, 2-(5-methyl-1,4-diazepan-1-yl)-N-(4-(pyridin-4-yl)phenyl)quinazolin-4-amine]	100%

Same assay, conditions: 9 points 2-fold serial dilution

Compound	IC50
CC1CN(c2nccc(Nc3ccc4[nH]ncc4c3)n2)CCCN1 (centres unmarked) [Example 203, N-(2-(3-methyl-1,4-diazepan-1-yl)pyrimidin-4-yl)-1H-indazol-5-amine]	46 nM
CC1CNCCN1c1nccc(Nc2ccc3[nH]ncc3c2)n1 (centres unmarked) [Example 232, N-(2-(2-methylpiperazin-1-yl)pyrimidin-4-yl)-1H-indazol-5-amine]	75 nM
CC1CCN(c2nc(Nc3ccc(-c4ccncc4)cc3)c3ccccc3n2)CCN1 (centres unmarked) [Example 239, 2-(5-methyl-1,4-diazepan-1-yl)-N-(4-(pyridin-4-yl)phenyl)quinazolin-4-amine]	> 1000 nM
